Here are results for 24 compounds from patent US20050250765A1, “Diazepinones as antiviral agents” (priority 2000, published 2005).

Tested on in the first data set: not listed separately
The experiment in a line: Metabolic stability, in vitro half-life in human liver microsomes. The class given is in vitro ADME. The settings on record: liver microsomes (pooled), 30 μM compound, 0.5 mg/mL pooled microsomal protein, 1.0 mM NADPH, 37° C., pH 7.4, read-out: t½ (min) Human Liver Microsome Preparation. As for the experimental part:
Compounds were individually incubated (30 μM, dissolved in DMSO) with human and mouse liver microsomes. The incubation consisted of 50 mM KPO4, pH 7.4 buffer with 0.5 mg/mL pooled microsomal protein, 30 μM compound, and 1.0 mM NADPH. The total incubate volume was 0.5 mL. The incubate solution was pro-incubated for 3 minutes at 37° C. and the reaction initiated by the addition of NADPH. At 0, 10, 20, and 40 minutes 50 μL aliquots were removed and quenched with 100 μL acetonitrile and 25 μL of internal standard. Standard curves of each compound were prepared in a simialr manner at a concentration range of 7.5 μM to 45 μM. Th in vitro metabolic half-life determinations of these preparations were determined from the concentration vs. time plots using WinNonlin software. The in vitro half-life data represents the extent of oxidative and hydrolytic metabolism.
Consider `CCN1CCNC(=O)c2oc3ccc(OC)cc3c21` [H, 5-Ethyl-3-methoxy-5,6,7,8-tetrahydro-10-oxa-5,8-diaza-benzo[a]azulen-9-one], for which the half-life at 30 μM was determined as 200 min.
Turning to `O=C1NCCNc2c1ccc1cnccc21` [F, 8,9,10,11-Tetrahydro-3,8,11-triaza-cyclohepta[a]naphthalen-7-one], the half-life at 30 μM was more than 200 min.
Turning to `COc1ccc(CN2CC(C)(C)NC(=O)c3sc4ccc(OC)cc4c32)cc1` [K, 3-Methoxy-5-(4-methoxy-benzyl)-7,7-dimethyl-5,6,7,8-tetrahydro-10-thia-5,8-diaza-benzo[a]azulen-9-one], the half-life at 30 μM is 150 min.
Regarding `COc1cccc(CN2CCNC(=O)c3ccc4cnccc4c32)c1` [FF4, 11-(3-Methoxy-benzyl)-8,9,10,11-tetrahydro-3,8,11-triaza-cyclohepta[a]naphthalen-7-one], the half-life at 30 μM is more than 200 min.
In the case of `CCOc1ccc2sc3c(c2c1)NCC(C)(C)NC3=O` [NN, 3-Ethoxy-7,7-dimethyl-5,6,7,8-tetrahydro-10-thia-5,8-diaza-benzo[a]azulen-9-one], the half-life at 30 μM came to 133 min.
Take `COc1ccc2sc3c(c2c1)NCCNC3=O` [B, 3-Methoxy-5,6,7,8-tetrahydro-10-thia-5,8-diaza-benzo[a]azulen-9-one]: the half-life at 30 μM was found to be 66 min.

For a further data set, the system named is Vero cells.
Experiment: not given
The settings on record: read-out: TC50; 2-day XTT, no virus.
Take “5-(3-Methoxy-benzyl)-3-nitro-5,6,7,8-tetrahydro-10-thia-5,8-diaza-benz[a]azulen-9-one [W]”: the CC50 came to 100 µM.

Tested on in a further data set: not listed separately
Kind of data set: in vitro. The settings on record: African green monkey, TC50.
Compound `COc1ccc2sc3c(c2c1)N(Cc1ccccc1C)CCNC3=O` [WW3, 3-Methoxy-5-(2-methyl-benzyl)-5,6,7,8-tetrahydro-10-thia-5,8-diaza-benzo[a]azulen-9-one] displayed a CC50 at 2 day of 10.2 µM.
As to `C=C(C)CN1CCNC(=O)c2sc3ccc(F)cc3c21` [CC5, 3-Fluoro-5-(2-methyl-allyl)-5,6,7,8-tetrahydro-10-thia-5,8-diaza-benz[a]azulen-9-one], the CC50 at 2 day was 18.5 µM.
`COc1ccc2sc3c(c2c1)N(Cc1ccc(C#N)cc1)CCN(C)C3=O` [AA4, 4-(3-Methoxy-8-methyl-9-oxo-6,7,8,9-tetrahydro-10-thia-5,8-diaza-benzo[a]azulen-5-ylmethyl)-benzonitrile] had a CC50 at 2 day of 100 µM.
The same measure, in the same setting: next, `O=C1NCCNc2c1ccc1cnccc21` [F, 8,9,10,11-Tetrahydro-3,8,11-triaza-cyclohepta[a]naphthalen-7-one]: 1.7 µM; `COc1ccc2sc3c(c2c1)N(Cc1ccc([N+](=O)[O-])cc1)CCNC3=O` [SS3, 3-Methoxy-5-(4-nitro-benzyl)-5,6,7,8-tetrahydro-10-thia-5,8-diaza-benzo[a]azulen-9-one]: 83 µM; `COc1ccc2sc3c(c2c1)NC(Cc1ccccc1)CNC3=O` (centres unmarked) [PP2, 6-Benzyl-3-methoxy-5,6,7,8-tetrahydro-10-thia-5,8-diaza-benzo[a]azulen-9-one]: 1.1 µM.
Still for that read-out and setting: the result for `COc1ccc2oc3c(c2c1)N(CCC(C)C)CCNC3=O` [YY5, 3-Methoxy-5-(3-methyl-butyl)-5,6,7,8-tetrahydro-10-oxa-5,8-diaza-benzo[a]azulen-9-one] reads 10 µM; that for `COc1cccc(CN2CCNC(=O)c3sc4ccc(OC)cc4c32)c1` [C, 3-Methoxy-5-(3-methoxy-benzyl)-5,6,7,8-tetrahydro-10-thia-5,8-diaza-benzo[a]azulen-9-one], 10 µM; that for `C=C(Cl)CN1CCNC(=O)c2sc3ccc(OC)cc3c21` [MM3, 5-(2-Chloro-allyl)-3-methoxy-5,6,7,8-tetrahydro-10-thia-5,8-diaza-benzo[a]azulen-9-one], 3 µM.
Still for that read-out and setting: the result for `C=C(C)CN1CCNC(=O)c2sc3ccc([N+](=O)[O-])cc3c21` [Q, 5-(2-Methyl-allyl)-3-nitro-5,6,7,8-tetrahydro-10-thia-5,8-diaza-benz[a]azulen-9-one] reads 6 µM; that for `CCCN1CC(C)(C)NC(=O)c2sc3ccc(OC)cc3c21` [TT, 3-Methoxy-7,7-dimethyl-5-propyl-5,6,7,8-tetrahydro-10-thia-5,8-diaza-benzo[a]azulen-9-one], 0.4 µM; that for `C=CCN1CCNC(=O)c2sc3ccc([N+](=O)[O-])cc3c21` [U, 5-Allyl-3-nitro-5,6,7,8-tetrahydro-10-thia-5,8-diaza-benz[a]azulen-9-one], 8.1 µM.
Take `CN1CCNC(=O)c2ccc3cnccc3c21` [GG4, 11-Methyl-8,9,10,11-tetrahydro-3,8,11-triaza-cyclohepta[a]naphthalen-7-one]: the CC50 at 2 day stood at 11.5 µM.
Same read-out and setting: the result for `CCCCN1CCNC(=O)c2sc3ccc([N+](=O)[O-])cc3c21` [DD, 5-n-Butyl-3-nitro-5,6,7,8-tetrahydro-10-thia-5,8-diaza-benz[a]azulen-9-one] reads 12.9 µM; that for `COc1cccc(CN2CCNC(=O)c3sc4ccc([N+](=O)[O-])cc4c32)c1` [V, 5-(3-Methoxy-benzyl)-3-nitro-5,6,7,8-tetrahydro-10-thia-5,8-diaza-benz[a]azulen-9-one], 1.3 µM; that for `CCCN1CCNC(=O)c2sc3ccc(OCC)cc3c21` [D, 3-Ethoxy-5-propyl-5,6,7,8-tetrahydro-10-thia-5,8-diaza-benzo[a]azulen-9-one], 100 µM.
Take `COc1ccc2sc3c(c2c1)NCCNC3=O` [B, 3-Methoxy-5,6,7,8-tetrahydro-10-thia-5,8-diaza-benzo[a]azulen-9-one]: the CC50 at 2 day worked out at 4.5 µM.

The next data set has as its system Vero cells.
Experiment: not given
The settings on record: African green monkey, 2 day.
The compound `COc1cccc(CN2CC(C)NC(=O)c3sc4ccc(OC)cc4c32)c1` (centres unmarked) [O, 3-Methoxy-5-(3-methoxy-benzyl)-7-methyl-5,6,7,8-tetrahydro-10-thia-5,8-diaza-benzo[a]azulen-9-one] returned a CC50 of 18 µM.
On the same count and under the same terms, the result for `COc1cccc(CN2CC(C)NC(=O)c3sc4ccc(OC)cc4c32)c1` (centres unmarked) [EE2, 3-Methoxy-5-(3-methoxy-benzyl)-7-methyl-5,6,7,8-tetrahydro-10-thia-5,8-diaza-benzo[a]azulen-9-one] reads 3.4 µM.
